Type in all cases: cell-based
For assay [1], the system named is Staphylococcus aureus. Put plainly: Challenge test (European Pharmacopoeia 10th Edition, Chapter 5.1.3) in leave-on O/W-cream gel. The conditions noted are these: for Challenge test result S.a.: Example 2A, Velsan Flex 1.35%, CHA 0.15%; for Challenge test result Staphylococcus aureus: Example 2B, CHA 0.1%, Velsan SC 0.9%, Velsan CGE 0.9%. Also on record: key: An A-criteria is related to an excellent protection of a formulation; B-criteria is needed to show sufficient protection but additional risk eliminating measures related to packaging and raw material quality need to be applied; With an F-criteria for any of the organism tested the whole challenge test is failed and the preservation/protection of the formulation is not sufficient. The text has this: (§1) Following examples show challenge test results that were done according to EUROPEAN PHARMACOPOEIA 10TH EDITION. Chapter 5.1.3. As representative microorganisms the following test germs were used: Pseudomonas aeruginosa (gram-negative organism, short “P.a.”), Staphylococcus aureus (gram-positive organism, short “S.a.”), Escherichia coli (gram negative organism, short “E.c.”), Candida albicans (yeast, short “C.a.”) and Aspergillus brasiliensis (mold, short “A.b.”).
(§2) The A criteria express the recommended efficacy to be achieved. In justified cases where the A criteria cannot be attained, for example for reasons of an increased risk of adverse reactions, the B criteria must be satisfied. An A-criteria is related to an excellent protection of a formulation, B-criteria is needed to show sufficient protection but additional risk eliminating measures related to packaging and raw material quality need to be applied. With an F-criteria for any of the organism tested the whole challenge test is failed and the preservation/protection of the formulation is not sufficient.
(§3) As a reference an unpreserved sample of the respective formulation was tested as well.
(§4) As a test system a difficult to preserve formulation was used: […]
(§5) As a Test System the Following Formulation was Used: […]

Assay [2] has as its system Escherichia coli. Described as above. The note with it: for Challenge test result E.c.: Example 2A, Velsan Flex 1.35%, CHA 0.15%; for Challenge test result Escherichia coli: Example 2B, CHA 0.1%, Velsan SC 0.9%, Velsan CGE 0.9%. Also on record: key: An A-criteria is related to an excellent protection of a formulation; B-criteria is needed to show sufficient protection but additional risk eliminating measures related to packaging and raw material quality need to be applied; With an F-criteria for any of the organism tested the whole challenge test is failed and the preservation/protection of the formulation is not sufficient.
Text: as §1, §2, §3, §4, §5

Assay [3] has as its system Aspergillus brasiliensis. Described as above. Also on record: key: An A-criteria is related to an excellent protection of a formulation; B-criteria is needed to show sufficient protection but additional risk eliminating measures related to packaging and raw material quality need to be applied; With an F-criteria for any of the organism tested the whole challenge test is failed and the preservation/protection of the formulation is not sufficient. The conditions noted are these: for Challenge test result A.b.: Example 2A, Velsan Flex 1.35%, CHA 0.15%; for Challenge test result Aspergillus brasiliensis: Example 2B, CHA 0.1%, Velsan SC 0.9%, Velsan CGE 0.9%.
Text: as §1, §2, §3, §4, §5

The subject of assay [4] is Candida albicans. The assay is described as above. Also on record: key: An A-criteria is related to an excellent protection of a formulation; B-criteria is needed to show sufficient protection but additional risk eliminating measures related to packaging and raw material quality need to be applied; With an F-criteria for any of the organism tested the whole challenge test is failed and the preservation/protection of the formulation is not sufficient. The conditions noted are these: for Challenge test result C.a.: Example 2A, Velsan Flex 1.35%, CHA 0.15%; for Challenge test result Candida albicans: Example 2B, CHA 0.1%, Velsan SC 0.9%, Velsan CGE 0.9%.
Text: as §1, §2, §3, §4, §5

Assay [5] relates to Pseudomonas aeruginosa. Described as above. The note with it: for Challenge test result P.a.: Example 2A, Velsan Flex 1.35%, CHA 0.15%; for Challenge test result Pseudomonas aeruginosa: Example 2B, CHA 0.1%, Velsan SC 0.9%, Velsan CGE 0.9%. Also on record: key: An A-criteria is related to an excellent protection of a formulation; B-criteria is needed to show sufficient protection but additional risk eliminating measures related to packaging and raw material quality need to be applied; With an F-criteria for any of the organism tested the whole challenge test is failed and the preservation/protection of the formulation is not sufficient.
Text: as §1, §2, §3, §4, §5

In assay [6] the test system is Pseudomonas aeruginosa, Staphylococcus aureus, Escherichia coli, Candida albicans and Aspergillus brasiliensis. Put plainly: Challenge test, overall result over all test germs. Also on record: key: An A-criteria is related to an excellent protection of a formulation; B-criteria is needed to show sufficient protection but additional risk eliminating measures related to packaging and raw material quality need to be applied; With an F-criteria for any of the organism tested the whole challenge test is failed and the preservation/protection of the formulation is not sufficient. The note with it: for Challenge test Overall result: Example 2B, CHA 0.1%, Velsan SC 0.9%, Velsan CGE 0.9%.
Text: as §1, §2, §3, §4, §5

In assay [7] the test system is Aspergillus brasiliensis (M) DSM 1988. Put plainly: Minimum inhibitory concentration (MIC), agar dilution. The conditions noted are these: DSM1988, Sabouraud-4% Dextrose-Agar, pH 5.6 (+/−0.2). How it is done: (§6) The antimicrobial properties of Velsan Flex, CHA and a combination of both against bacteria, yeast and mold were investigated: For testing the inhibition of bacteria, Velsan Flex, CHA or a combination of both was diluted in 1,2-propanediol and added in different concentrations to liquid Caso-Agar at 50° C. and was buffered to pH 7 (+/−0.2). For testing the inhibition of yeast and mold, Velsan Flex, CHA or a combination of both was diluted in 1,2-propanediol and added in different concentrations to liquid Sabouraud-4% Dextrose-Agar at 50° C. and was buffered to pH 5.6 (+/−0.2). Each of the solutions was poured into a petri-dish and inoculated with the same amount of bacteria, yeast or mold respectively. The minimum inhibitory concentration (MIC) is the lowest concentration of the respective composition that inhibits the growth of the respective microorganism where the next lowest dilution fails to inhibit the growth of said microorganism. The experiments were carried out in scientifically fair conditions so that a proper comparison could be made and conclusions drawn.

In assay [8] the test system is Serratia marcescens (B) BAM 491. The description is as above. The note with it: Caso-Agar, pH 7 (+/−0.2). How it is done: as §6
The subject of assay [9] is Candida parapsilosis (Y) DSM 5784. Described as above. The conditions noted are these: Lodderomyces parapsilosis, DSM5784; Sabouraud-4% Dextrose-Agar, pH 5.6 (+/−0.2). How it is done: as §6
Assay [10] concerns Burkholderia cepacia (B) DSM 7288. The description is as above. The conditions noted are these: DSM7288, Caso-Agar, pH 7 (+/−0.2). The protocol:
as §6

Assay [11] concerns Klebsiella pneumoniae (B) DSM 786. The description is as above. The conditions noted are these: DSM786, Caso-Agar, pH 7 (+/−0.2). How it is done: as §6
Assay [12] relates to Aspergillus terreus (M) IMI 45543. Described as above. The note with it: Sabouraud-4% Dextrose-Agar, pH 5.6 (+/−0.2). The protocol: as §6
For assay [13], the system named is Pseudomonas aeruginosa (B) DSM 1128. Described as above. The conditions noted are these: DSM1128, Caso-Agar, pH 7 (+/−0.2). How it is done: as §6
The test system of assay [14] is Staphylococcus aureus (B) DSM 799. The description is as above. The note with it: DSM799, Caso-Agar, pH 7 (+/−0.2). How it is done:
as §6

The subject of assay [15] is Candida albicans (Y) DSM 1386. The assay is described as above. The conditions noted are these: DSM1386, Sabouraud-4% Dextrose-Agar, pH 5.6 (+/−0.2). How it is done:
as §6

For assay [16], the system named is Escherichia coli (B) DSM 682. The description is as above. The note with it: DSM682, Caso-Agar, pH 7 (+/−0.2). How it is done: as §6
Assay [17] relates to Enterobacter aerogenes (B) NCIMB 10102. The assay is described as above. The note with it: Klebsiella aerogenes, NCIMB10102; Caso-Agar, pH 7 (+/−0.2). How it is done: as §6

We go through three molecules from patent US20260000076A1, “ANTIMICROBIAL COMBINATIONS” (Clariant International Ltd, priority 2022, published 2026).

On to `CCCCCCCC(=O)NO` [CHA, Caprylhydroxamic acid], for which the “Challenge test result S.a.” value in assay [1] (pH 5) was “A”; in assay [1] (pH 7) it was “B”. In addition, the “Challenge test result Staphylococcus aureus” value in [1] (pH 5) was “A”; in [1] (pH 7) it was “F”. Moreover, the “Challenge test result E.c.” value in assay [2] (pH 5) and in [2] (pH 7) was “B” throughout. Further, the “Challenge test result Escherichia coli” value in assay [2] (pH 5) and in [2] (pH 7) was “B” in each case. Besides, the “Challenge test result A.b.” value in assay [3] (pH 5) and in assay [3] (pH 7) was “A” throughout. Besides, the “Challenge test result Aspergillus brasiliensis” value in [3] (pH 5) is “B”; in assay [3] (pH 7) it was “A”. Also, the “Challenge test result C.a.” value in assay [4] (pH 5) and in [4] (pH 7) was “A” throughout. The “Challenge test result Candida albicans” value in [4] (pH 5) and in [4] (pH 7) was “A” in each case. Also, the “Challenge test result P.a.” value in assay [5] (pH 5) and in [5] (pH 7) was “A” throughout. In addition, the “Challenge test result Pseudomonas aeruginosa” value in assay [5] (pH 5) and in assay [5] (pH 7) was “A” each time. In assay [6] (Example 2A, pH 5, Velsan Flex 1.35%, CHA 0.15%), the “Challenge test, criteria obtained over all test organisms” value is “B”. In addition, the “Challenge test Overall result” value in assay [6] (pH 5) was “B”; in assay [6] (pH 7), “F”.
Take Sorbitan caprylate [Velsan SC]: the “Challenge test result Staphylococcus aureus” value in assay [1] (pH 5) and in assay [1] (pH 7) was “A” throughout. In addition, the “Challenge test result Escherichia coli” value in [2] (pH 5) is “A”; in assay [2] (pH 7), “B”. Also, the “Challenge test result Aspergillus brasiliensis” value in [3] (pH 5) and in [3] (pH 7) was “F” throughout. Further, the “Challenge test result Candida albicans” value in [4] (pH 5) and in [4] (pH 7) was “B” each time. Besides, the “Challenge test result Pseudomonas aeruginosa” value in [5] (pH 5) and in assay [5] (pH 7) was “F” in each case. Also, the “Challenge test Overall result” value in assay [6] (pH 5) and in assay [6] (pH 7) was “F” in each case.
As to `CCCCCCCC(=O)NO` [10% CHA solution, Caprylhydroxamic acid], the MIC (in general, the smallest concentration in the dilution series that meets the test's criterion for growth inhibition) was found to be 3000 µg/mL in assay [7]; 4000 µg/mL in assay [8]; 2000 µg/mL in [9]; 3000 µg/mL in [10]; 3000 µg/mL in assay [11]; 2000 µg/mL in assay [12]. In addition, the MIC in assay [13] was found to be 8000 µg/mL; in assay [14], 8000 µg/mL; in assay [15] it was 2000 µg/mL; in [16], 5000 µg/mL; in [17], 6000 µg/mL.
